In the test the target is lipoteichoic acid synthase (LtaS) (Staphylococcus aureus, UniProt Q2G093). The experiment in a line: LTA polymerization in proteoliposomes with purified LtaS, anti-LTA blot. Format: biochemical.
Chain of lipoteichoic acid synthase (LtaS) (Q2G093 whole entry): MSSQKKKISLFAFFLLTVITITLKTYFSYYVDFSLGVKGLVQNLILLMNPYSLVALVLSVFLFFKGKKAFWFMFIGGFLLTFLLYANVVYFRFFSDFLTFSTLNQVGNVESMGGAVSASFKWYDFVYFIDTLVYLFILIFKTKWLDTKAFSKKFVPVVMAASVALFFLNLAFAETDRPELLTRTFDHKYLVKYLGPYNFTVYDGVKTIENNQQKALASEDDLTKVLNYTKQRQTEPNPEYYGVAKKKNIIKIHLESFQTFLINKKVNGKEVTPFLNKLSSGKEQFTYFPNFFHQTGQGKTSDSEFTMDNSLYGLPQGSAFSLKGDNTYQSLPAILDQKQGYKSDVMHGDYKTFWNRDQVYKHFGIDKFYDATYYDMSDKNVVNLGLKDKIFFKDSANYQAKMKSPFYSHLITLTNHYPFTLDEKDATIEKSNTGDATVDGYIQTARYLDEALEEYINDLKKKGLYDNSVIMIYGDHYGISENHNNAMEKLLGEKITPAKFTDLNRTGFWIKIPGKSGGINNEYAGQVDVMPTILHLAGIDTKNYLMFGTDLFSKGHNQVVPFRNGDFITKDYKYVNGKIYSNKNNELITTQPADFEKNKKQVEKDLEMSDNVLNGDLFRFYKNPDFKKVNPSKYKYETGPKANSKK

In turn, `Nc1c(/N=N/c2ccc(-c3ccc(/N=N/c4cc(S(=O)(=O)O)c5ccccc5c4N)cc3)cc2)cc(S(=O)(=O)O)c2ccccc12` [compound 1, Congo red] came in with an IC50 of about 2 µM.

As usually defined, the IC50 is the point on the concentration scale where inhibition reaches its midpoint. The low end stands for greater potency, the high end for weaker potency.

Source of the values: article PMC5856125 (Journal of the American Chemical Society, 2018).
